Test results published in ChEMBL document CHEMBL1201862, “PubChem BioAssay data set” (2004).
Where a name gives a salt, the structure may show the parent alone.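 Each compound was tested at five concentrations against cells in 96-well plates for 48 hours. At the GI50, growth is halved.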 Calls of active or inactive are those of the source. No stated cut-off is given here; in the data, active = GI50 up to about 1.1 µM and inactive = higher.

What was measured:
Assay in all cases: NCI anticancer screen, dose series, 48 h
NCI-H226 = tested on: NCI-H226
U-251 = tested on: U-251
BT-549 = tested on: BT-549
HL-60 = tested on: HL-60
SW-620 = tested on: SW-620
M14 = tested on: M14
MCF7 = tested on: MCF7
UACC-257 = tested on: UACC-257
786-0 = tested on: 786-0
Hs-578T = tested on: Hs-578T
SK-MEL-2 = tested on: SK-MEL-2
IGROV-1 = tested on: IGROV-1
RXF 393 = tested on: RXF 393
K562 = tested on: K562
SF-539 = tested on: SF-539
SNB-75 = tested on: SNB-75
HCC 2998 = tested on: HCC 2998
EKVX = tested on: EKVX
OVCAR-5 = tested on: OVCAR-5

SMILES	GI50 (NCI-H226)	GI50 (U-251)	GI50 (BT-549)	GI50 (HL-60)	GI50 (SW-620)	GI50 (M14)	GI50 (MCF7)	GI50 (UACC-257)	GI50 (786-0)	GI50 (Hs-578T)	GI50 (SK-MEL-2)	GI50 (IGROV-1)	GI50 (RXF 393)	GI50 (K562)	GI50 (SF-539)	GI50 (SNB-75)	GI50 (HCC 2998)	GI50 (EKVX)	GI50 (OVCAR-5)
CCOC(=O)C(=NN(C)c1ncccc1N)C(=O)OCC	21.6 µM (inactive)	> 100 µM (inactive)	> 100 µM (inactive)	15.1 µM (inactive)	27.6 µM (inactive)	32.5 µM (inactive)	20.5 µM (inactive)	24.4 µM (inactive)	29.6 µM (inactive)	> 100 µM (inactive)	29.6 µM (inactive)	61 µM (inactive)	84.9 µM (inactive)	25.4 µM (inactive)	22.9 µM (inactive)	> 100 µM (inactive)			
O=C(O)COc1cc(-c2ccccc2)nc2ccc(F)cc12	> 100 µM (inactive)	> 100 µM (inactive)	> 100 µM (inactive)	> 100 µM (inactive)	> 100 µM (inactive)	> 100 µM (inactive)	> 100 µM (inactive)	> 100 µM (inactive)	> 100 µM (inactive)	> 100 µM (inactive)	> 100 µM (inactive)	> 100 µM (inactive)		> 100 µM (inactive)	> 100 µM (inactive)	> 100 µM (inactive)	98.6 µM (inactive)	> 100 µM (inactive)	> 100 µM (inactive)
C=C1C[C@@H]2O[C@H]3[C@H]4[C@@H](C[C@@H](C)[C@@H](OC(C)=O)[C@H]42)[C@@H](C)CO[C@@]3(C)[C@H](OC(=O)CCCCCCC)CC1=O	21.2 µM (inactive)	16.8 µM (inactive)	18.1 µM (inactive)		15.2 µM (inactive)	15.6 µM (inactive)	18.5 µM (inactive)	14.4 µM (inactive)	15.7 µM (inactive)	17.1 µM (inactive)	19.2 µM (inactive)	21.5 µM (inactive)		> 10 µM (inactive)	22 µM (inactive)	12.1 µM (inactive)	17 µM (inactive)	15.5 µM (inactive)	7.29 µM (inactive)
COc1ccc2c(c1)C1=NCCN(CCN(C)C)c3ccc([N+](=O)[O-])c(c31)N2	2.17 µM (inactive)	0.649 µM (active)	0.815 µM (active)	0.427 µM (active)	0.252 µM (active)	0.489 µM (active)	0.365 µM (active)	1.38 µM (inactive)	0.255 µM (active)	1.75 µM (inactive)	1.45 µM (inactive)	0.708 µM (active)	0.757 µM (active)	0.364 µM (active)	0.432 µM (active)	0.173 µM (active)		0.736 µM (active)	1.59 µM (inactive)
O=C1CCCNn2c(nc3ncccc3c2=O)N1	> 100 µM (inactive)	> 100 µM (inactive)	> 100 µM (inactive)	> 100 µM (inactive)	> 100 µM (inactive)	> 100 µM (inactive)	> 100 µM (inactive)	> 100 µM (inactive)	> 100 µM (inactive)	> 100 µM (inactive)	> 100 µM (inactive)	> 100 µM (inactive)	> 100 µM (inactive)	> 100 µM (inactive)	> 100 µM (inactive)	30.2 µM (inactive)		> 100 µM (inactive)	> 100 µM (inactive)
O=C(O)c1cccc(F)c1C(=O)c1ccc2ccccc2c1	> 100 µM (inactive)	> 100 µM (inactive)	> 100 µM (inactive)	> 100 µM (inactive)	> 100 µM (inactive)	> 100 µM (inactive)	> 100 µM (inactive)	> 100 µM (inactive)	> 100 µM (inactive)	> 100 µM (inactive)	> 100 µM (inactive)	> 100 µM (inactive)	> 100 µM (inactive)	> 100 µM (inactive)	> 100 µM (inactive)	73.1 µM (inactive)		> 100 µM (inactive)	> 100 µM (inactive)
Cc1ccc2c(O)cc(-c3cccc(Cl)c3)nc2n1	0.0489 µM (active)	0.0308 µM (active)	0.278 µM (active)	< 0.0169 µM (active)	< 0.01 µM (active)	0.0306 µM (active)	< 0.0217 µM (active)	0.0393 µM (active)	< 0.0255 µM (active)	0.028 µM (active)	0.0324 µM (active)	0.0155 µM (active)		< 0.0169 µM (active)	< 0.01 µM (active)		0.12 µM (active)	> 68.1 µM (inactive)	
CN1[C@@H]2C[C@@H](OC(=O)[C@H](CO)c3ccccc3)C[C@H]1[C@@H]1O[C@@H]12 [SCOPOLAMINE HYDROBROMIDE]	> 100 µM (inactive)		> 100 µM (inactive)		> 100 µM (inactive)	> 100 µM (inactive)	> 100 µM (inactive)	> 100 µM (inactive)	> 100 µM (inactive)	> 100 µM (inactive)	> 100 µM (inactive)	> 100 µM (inactive)	> 100 µM (inactive)	> 100 µM (inactive)				> 100 µM (inactive)	> 100 µM (inactive)
